# Measurements published in patent US20240012010A1, “METHODS OF MONITORING ALPHA-1 ANTITRYPSIN (AAT) DEFICIENCY BY MEASURING POLYMERISED AAT” (Vertex Pharmaceuticals Incorporated, priority 2020, published 2024).
# Biological target: T1, AAT polymer (Z variant of the human allele of AAT) (Homo sapiens, UniProt P01009, E366K/V237A)
# T1 construct: At study termination, plasma was collected via cardiac puncture; from tissue; host or cells: plasma of transgenic PiZ mice (C57BL/6 background) carrying the human SERPINA1 Z gene
# T1 sequence (P01009 25-418 V237A/E366K): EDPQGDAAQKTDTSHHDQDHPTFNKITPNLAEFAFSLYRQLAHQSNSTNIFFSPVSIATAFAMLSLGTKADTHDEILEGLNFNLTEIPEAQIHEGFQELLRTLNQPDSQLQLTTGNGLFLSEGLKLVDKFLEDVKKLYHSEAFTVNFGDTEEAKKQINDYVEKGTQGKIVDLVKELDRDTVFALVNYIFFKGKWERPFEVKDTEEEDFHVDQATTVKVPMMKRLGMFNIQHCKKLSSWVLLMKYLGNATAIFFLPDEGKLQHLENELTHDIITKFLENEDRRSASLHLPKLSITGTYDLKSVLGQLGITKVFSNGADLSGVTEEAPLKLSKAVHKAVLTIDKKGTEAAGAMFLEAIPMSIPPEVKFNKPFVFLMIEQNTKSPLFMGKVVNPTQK
# Assay: Pharmacodynamic effect of Compound 2 treatment on polymer levels in a PiZ mouse model (polymer sandwich ELISA of plasma)
# Type: in vivo
# Conditions: male PiZ hemizygous mice
# Procedure: Eleven week-old male PiZ mice, hemizygous for the Z variant of the human allele of AAT, were orally administered a suspension of either vehicle or Compound 2 QD at 50 and 100 mg/kg/day for 72 hours or 5, 16, 50, and 100 mg/kg/day for 28 days. At study termination, plasma was collected via cardiac puncture and liver tissue was collected and preserved in 10% neutral buffered formalin.
# Liver polymer staining was assessed as the % area of liver tissue that stains positively by monoclonal antibody 2C1 immunohistochemistry.
# High bind EIA/RIA microplates (Costar, 3590) were coated with 100 μL mouse monoclonal anti-human AAT polymer antibody (Hycult Biotech, HM2289, clone 2C1) diluted to 2 μg/mL in carbonate-bicarbonate buffer (0.2M, pH 9.4) and incubated for 90 minutes at 37° C. (while shaking) or alternatively overnight (up to 72 hours) at 4° C. (still). […] Following color development, 100 μL 1N sulfuric acid was added to stop the reaction and absorbance was immediately measured at 450 nm and 650 nm for background subtraction with a microplate reader (Molecular Devices, SpectraMax M3). […]
compound,measurement,setting,value
O=C(O)c1ccc(-c2c(C3CCOCC3)n(-c3ccc(F)c(F)c3)c3cc4cn[nH]c4cc23)cc1 [Compound 2],AAT plasma polymer levels,"QD 5, 16, 50 and 100 mg/kg/day PO for 28 days, vs vehicle (FIG. 5B)",dose response decrease
same,AAT plasma polymer levels,"QD 50 and 100 mg/kg/day PO for 72 hours, vs vehicle (FIG. 5A)",dose response decrease
